IC50 data for 24 compounds are collected here from US10000516B2 (priority 2015, dated 2018).

Molecules are shown by their SMILES.

T1 sequence (P00746 26-253): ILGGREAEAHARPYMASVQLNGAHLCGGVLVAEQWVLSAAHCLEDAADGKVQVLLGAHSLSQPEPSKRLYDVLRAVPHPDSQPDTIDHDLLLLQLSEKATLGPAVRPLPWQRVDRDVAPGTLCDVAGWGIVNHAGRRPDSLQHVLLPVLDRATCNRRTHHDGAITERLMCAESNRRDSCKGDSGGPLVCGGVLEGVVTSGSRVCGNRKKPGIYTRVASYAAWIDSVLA

One experiment has as its target T1, Human Factor D (Homo sapiens, UniProt P00746).
T1 construct: purified from human serum; purchased Complement Technology, Inc; host or cells: human serum (natural protein, not recombinant)
As to the kind of experiment: Human Factor D assay (Z-L-Lys-SBzl/DTNB, absorbance at 405 nm). It counts as biochemical.
Conditions: not given
As for the experimental part:
Example 44. Human Factor D Assay
Human Factor D (purified from human serum, Complement Technology, Inc.) at 80 nM final concentration was incubated with test compound at various concentrations for 5 minutes at room temperature in 50 mM Tris, 1M NaCl, pH 7.5. A synthetic substrate Z-L-Lys-SBzl and DTNB (Ellman's reagent) are added to final concentrations of 100 µM each. Absorbance at 405 nm (A405) was recorded at 30 second intervals for 30 minutes using a microplate spectrophotometer. IC50 values are calculated by nonlinear regression of complement Factor D reaction rates as a function of test compound concentration.
`CC(=O)c1cn(CC(=O)N2[C@@H]3CCC[C@@H]3C[C@H]2C(=O)NCc2cccc(Cl)c2F)c2cc(P(=O)(O)O)ccc12` [Compound 7, 3-acetyl-1-(2-((2S,3aR,6aR)-2-(3-chloro-2-fluorobenzylcarbamoyl)hexahydrocyclopenta [b]pyrrol-1(2H)-yl)-2-oxoethyl)-1H-indol-6-ylphosphonic acid]: the IC50 (as a rule, the concentration needed to halve the response being measured) was less than 1000 nM. Same read-out and setting: next, `CCCCOP(=O)(OCCCC)c1ccc2c(C(C)=O)cn(CC(=O)N3C[C@H](F)C[C@H]3C(=O)NCc3cccc(Cl)c3F)c2c1` [Compound 20, dibutyl 3-acetyl-1-(2-((2S,4R)-2-(3-chloro-2-fluorobenzylcarbamoyl)-4-fluoropyrrolidin-1-yl)-2-oxoethyl)-1H-indol-6-ylphosphonate]: less than 1000 nM.

The experiment is the same for the next values; noted with them: Table 1; Human Factor D 80 nM, purified from human serum; substrate Z-L-Lys-SBzl; read-out: IC50.
Regarding `CCOP(=O)(OCC)c1ccc2c(C(C)=O)cn(CC(=O)N3C[C@H](F)C[C@H]3C(=O)NCc3cccc(Cl)c3F)c2c1` [Compound 1, diethyl 3-acetyl-1-(2-((2S,4R)-2-(3-chloro-2-fluorobenzylcarbamoyl)-4-fluoropyrrolidin-1-yl)-2-oxoethyl)-1H-indol-6-ylphosphonate], the 50% inhibitory concentration (IC50) is less than 1000 nM. Same read-out and setting: the result for `CCOP(=O)(O)c1ccc2c(C(C)=O)cn(CC(=O)N3C[C@H](F)C[C@H]3C(=O)NCc3cccc(Cl)c3F)c2c1` [Compound 2, ethyl hydrogen 3-acetyl-1-(2-((2S,4R)-2-(3-chloro-2-fluorobenzylcarbamoyl)-4-fluoropyrrolidin-1-yl)-2-oxoethyl)-1H-indol-6-ylphosphonate] reads less than 1000 nM; that for `CC(=O)c1cn(CC(=O)N2C[C@H](F)C[C@H]2C(=O)NCc2cccc(Cl)c2F)c2cc(P(=O)(O)O)ccc12` [Compound 3, 3-acctyl-1-(2-((2S,4R)-2-(3-chloro-2-fluorobenzylcarbamoyl)-4-fluoropyrrolidin-1-yl)-2-oxoethyl)-1H-indol-6-ylphosphonic acid], less than 1000 nM; that for `CC(=O)c1cn(CC(=O)N2C[C@H](F)C[C@H]2C(=O)NCc2cccc(Cl)c2F)c2cc(P(=O)(OCOC(=O)OC(C)C)OCOC(=O)OC(C)C)ccc12` [Compound 4, ((3-acetyl-1-(2-((2S,4R)-2-(3-chloro-2-fluorobenzylcarbamoyl)-4-fluoropyrrolidin-1-yl)-2-oxoethyl)-1H-indol-6-yl)phosphoryl)bis(oxy) bis(methylene) isopropyl dicarbonate], less than 1000 nM. The same measure, in the same setting: the result for `CCOP(=O)(OCOC(=O)OC(C)C)c1ccc2c(C(C)=O)cn(CC(=O)N3C[C@H](F)C[C@H]3C(=O)NCc3cccc(Cl)c3F)c2c1` (stereo partly drawn) [Compound 6, ((3-acetyl-1-(2-((2S,4R)-2-(3-chloro-2-fluorobenzylcarbamoyl)-4-fluoropyrrolidin-1-yl)-2-oxoethyl)-1H-indol-6-yl)(ethoxy)phosphoryloxy) methyl isopropyl carbonate] reads less than 1000 nM. Regarding `CCOP(=O)(OCC)c1ccc2c(c1)c(C(C)=O)cn2CC(=O)N1C[C@H](F)C[C@H]1C(=O)NCc1cccc(Cl)c1F` [Compound 8, diethyl 3-acetyl-1-(2-((2S,4R)-2-(3-chloro-2-fluorobenzylcarbamoyl)-4-fluoropyrrolidin-1-yl)-2-oxoethyl)-1H-indol-5-ylphosphonate], the IC50 is less than 1000 nM. The same measure, in the same setting: the result for `CCOP(=O)(O)c1ccc2c(c1)c(C(C)=O)cn2CC(=O)N1C[C@H](F)C[C@H]1C(=O)NCc1cccc(Cl)c1F` [Compound 9, ethyl hydrogen 3-acetyl-1-(2-((2S,4R)-2-(3-chloro-2-fluorobenzylcarbamoyl)-4-fluoropyrrolidin-1-yl)-2-oxoethyl)-1H-indol-5-ylphosphonate] reads more than 10000 nM. The same measure, in the same setting: next, `CC(=O)c1cn(CC(=O)N2C[C@H](F)C[C@H]2C(=O)NCc2cccc(Cl)c2F)c2ccc(P(=O)(O)O)cc12` [Compound 10, 3-acetyl-1-(2-((2S,4R)-2-(3-chloro-2-fluorobenzylcarbamoyl)-4-fluoropyrrolidin-1-yl)-2-oxoethyl)-1H-indol-5-ylphosphonic acid]: less than 1000 nM; `CCOC(=O)c1nn(CC(=O)N2C[C@H](F)C[C@H]2C(=O)NCc2cccc(Cl)c2F)c2cc(P(=O)(OCC)OCC)ccc12` [Compound 11, ethyl 1-(2-((2S,4R)-2-(3-chloro-2-fluorobenzylcarbamoyl)-4-fluoropyrrolidin-1-yl)-2-oxoethyl)-6-(diethoxyphosphoryl)-1H-indazole-3-carboxylate]: more than 10000 nM; `CCOP(=O)(OCC)c1ccc2c(C(=O)O)nn(CC(=O)N3C[C@H](F)C[C@H]3C(=O)NCc3cccc(Cl)c3F)c2c1` [Compound 12, 1-(2-((2S,4R)-2-(3-chloro-2-fluorobenzylcarbamoyl)-4-fluoropyrrolidin-1-yl)-2-oxoethyl)-6-(diethoxyphosphoryl)-1H-indazole-3-carboxylic acid]: more than 10000 nM. Take `CCOP(=O)(OCC)c1ccc2c(C(=O)OC)cn(CC(=O)N3C[C@H](F)C[C@H]3C(=O)NCc3cccc(Cl)c3F)c2c1` [Compound 13, methyl 1-(2-((2S,4R)-2-(3-chloro-2-fluorobenzylcarbamoyl)-4-fluoropyrrolidin-1-yl)-2-oxoethyl)-6-(diethoxyphosphoryl)-1H-indole-3-carboxylate]: the IC50 is less than 1000 nM. `COC(=O)c1cn(CC(=O)N2C[C@H](F)C[C@H]2C(=O)NCc2cccc(Cl)c2F)c2cc(P(=O)(O)O)ccc12` [Compound 14, 1-(2-((2S,4R)-2-(3-chloro-2-fluorobenzylcarbamoyl)-4-fluoropyrrolidin-1-yl)-2-oxoethyl)-3-(methoxycarbonyl)-1H-indol-6-ylphosphonic acid]: the IC50 was less than 1000 nM. For the compound `CCOP(=O)(OCC)c1ccc2c(C(N)=O)cn(CC(=O)N3C[C@H](F)C[C@H]3C(=O)NCc3cccc(Cl)c3F)c2c1` [Compound 15, diethyl 3-carbamoyl-1-(2-((2S,4R)-2-(3-chloro-2-fluorobenzylcarbamoyl)-4-fluoropyrrolidin-1-yl)-2-oxoethyl)-1H-indol-6-ylphosphonate], the 50% inhibitory concentration (IC50) was less than 1000 nM.

For `NC(=O)c1cn(CC(=O)N2C[C@H](F)C[C@H]2C(=O)NCc2cccc(Cl)c2F)c2cc(P(=O)(O)O)ccc12` [Compound 16, 3-carbamoyl-1-(2-((2S,4R)-2-(3-chloro-2-fluorobenzylcarbamoyl)-4-fluoropyrrolidin-1-yl)-2-oxoethyl)-1H-indol-6-ylphosphonic acid], the 50% inhibitory concentration (IC50) is less than 1000 nM.

For the compound `CCOP(=O)(OCC)c1ccc2c(C(N)=O)nn(CC(=O)N3C[C@H](F)C[C@H]3C(=O)NCc3cccc(Cl)c3F)c2c1` [Compound 17, diethyl 3-carbamoyl-1-(2-((2S,4R)-2-(3-chloro-2-fluorobenzylcarbamoyl)-4-fluoropyrrolidin-1-yl)-2-oxoethyl)-1H-indazol-6-ylphosphonate], the IC50 is less than 1000 nM. Consider `NC(=O)c1nn(CC(=O)N2C[C@H](F)C[C@H]2C(=O)NCc2cccc(Cl)c2F)c2cc(P(=O)(O)O)ccc12` [Compound 18, 3-carbamoyl-1-(2-((2S,4R)-2-(3-chloro-2-fluorobenzylcarbamoyl)-4-fluoropyrrolidin-1-yl)-2-oxoethyl)-1H-indazol-6-ylphosphonic acid], for which the half-inhibitory concentration (IC50) is less than 1000 nM. On the same count and under the same terms, next, `CC(=O)c1cn(CC(=O)N2C[C@H](F)C[C@H]2C(=O)NCc2cccc(Cl)c2F)c2cc(P(=O)(OCC(F)(F)F)OCC(F)(F)F)ccc12` [Compound 19, bis(2,2,2-trifluoroethyl) 3-acetyl-1-(2-((2S,4R)-2-(3-chloro-2-fluorobenzylcarbamoyl)-4-fluoropyrrolidin-1-yl)-2-oxoethyl)-1H-indol-6-ylphosphonate]: less than 1000 nM; `CCCCOP(=O)(O)c1ccc2c(C(C)=O)cn(CC(=O)N3C[C@H](F)C[C@H]3C(=O)NCc3cccc(Cl)c3F)c2c1` [Compound 21, butyl hydrogen 3-acetyl-1-(2-((2S,4R)-2-(3-chloro-2-fluorobenzylcarbamoyl)-4-fluoropyrrolidin-1-yl)-2-oxoethyl)-1H-indol-6-ylphosphonate]: less than 1000 nM.

`CC(=O)c1cn(CC(=O)N2C[C@H](F)C[C@H]2C(=O)NCc2cccc(Cl)c2F)c2cc(P(=O)(O)OCOC(=O)OC(C)C)ccc12` [Compound 22, ((3-acetyl-1-(2-((2S,4R)-2-(3-chloro-2-fluorobenzylcarbamoyl)-4-fluoropyrrolidin-1-yl)-2-oxoethyl)-1H-indol-6-yl)(hydroxy)phosphoryloxy) methyl isopropyl carbonate]: the IC50 is less than 1000 nM. Regarding `CCOP(=O)(c1ccccc1)c1ccc2c(C(C)=O)cn(CC(=O)N3C[C@H](F)C[C@H]3C(=O)NCc3cccc(Cl)c3F)c2c1` (stereo partly drawn) [Compound 23, ethyl 3-acetyl-1-(2-((2S,4R)-2-(3-chloro-2-fluorobenzylcarbamoyl)-4-fluoropyrrolidin-1-yl)-2-oxoethyl)-1H-indol-6-yl(phenyl)phosphinate], the concentration for half-maximal inhibition (IC50) was less than 1000 nM. For the compound `CCOP(=O)(CC)c1ccc2c(C(C)=O)cn(CC(=O)N3C[C@H](F)C[C@H]3C(=O)NCc3cccc(Cl)c3F)c2c1` (stereo partly drawn) [Compound 24, ethyl 3-acetyl-1-(2-((2S,4R)-2-(3-chloro-2-fluorobenzylcarbamoyl)-4-fluoropyrrolidin-1-yl)-2-oxoethyl)-1H-indol-6-yl(ethyl)phosphinate], the IC50 was less than 1000 nM. Still for that read-out and setting: next, `CC(=O)c1cn(CC(=O)N2C[C@H](F)C[C@H]2C(=O)NCc2cccc(Cl)c2F)c2cc(P(=O)(O)c3ccccc3)ccc12` [Compound 25, 3-acetyl-1-(2-((2S,4R)-2-(3-chloro-2-fluorobenzylcarbamoyl)-4-fluoropyrrolidin-1-yl)-2-oxoethyl)-1H-indol-6-yl(phenyl)phosphinic acid]: less than 1000 nM.
